The source of these data is patent US20230152324A1, “TUMOR-INTRINSIC NLRP3 INFLAMMASOME SIGNALING PATHWAY AS A GENETIC AND FUNCTIONAL BIOMARKER FOR IMMUNOTHERAPY RESPONSE” (Duke University, priority 2021, published 2023).

For assay [1], the system named is autochthonous BRAF^V600EPTEN^−/− melanoma model. The assay can be described thus: Autochthonous (transgenic) BRAFV600EPTEN−/− melanoma model treated with anti-PD-1 ± MCC950 or anti-HSP70 antibody. The assay is classed as in vivo, mouse. The text has this:
Prior studies have described disease hyper-progression (HPD) occurring in response to anti-PD-1 immunotherapy, a phenomenon estimated by some authors to develop in ˜10% of all solid tumors (5). In HPD, tumor burden can dramatically increase in response to exposure to anti-PD-1 immunotherapy. Given our prior data describing a role for the tumor-intrinsic NLRP3-HSP70 signaling axis as an important driver of PMN-MDSC accumulation in distant lung tissues in response to anti-PD-1 immunotherapy, we hypothesized that this same tumor-intrinsic signaling pathway can establish an immunologic environment capable of facilitating HPD. […]
B6.Cg-Braf^tm1Mmcm Pten^tm1Hwu Tg(Tyr-cre/ERT2 H-2^b)13Bos/BosJ transgenic mice were subdermally injected with 4-Hydroxytamoxifen (4-HT) (Sigma, H6278-50MG CCF, 38.75 μg/mouse) to induce primary melanoma development at the base of the tail. […] Primary tumor volumes were monitored by orthogonal caliper measurements every 3 days. Tumor volume was calculated according to the formula: cm^3=[(length, cm)×(width, cm)^2]/2.
Small representative tissue specimens were harvested from tumors and lungs and stored in RNAlater at −80° C. […] Total RNA was isolated by RNeasy Plus Mini Kit (Qiagen, 74134) and RNA was quantified by NanoDrop. […] All data were normalized to Actb expression and relative gene expression was quantitated based on the 2ΔΔCt method. […]

The test system of assay [2] is BRAF^V600EPTEN^−/− melanoma-bearing NLRP3^−/− mice. Kind of assay: Anti-PD-1 alone or with MCC950 in BRAFV600EPTEN−/− melanoma-bearing NLRP3−/− mice. The assay is classed as in vivo, mouse.
Assay [3] concerns CD45^−EpCAM^+ lung epithelial cells of TLR4^f/f and SPC-TLR4^−/− mice. Kind of assay: rHSP70 i.p. in TLR4f/f and SPC-TLR4−/− transgenic mice, qrt-PCR of sorted lung epithelial cells. The assay is classed as in vivo, mouse. To be noted: rHSP70 i.p. vs saline. The text has this: (§1) Indeed, while we were able to detect soluble HSP70 as a secretion product of human melanoma cell lines, we were not able to detect the production of active IL-1β (FIGS. 12B and C). […] We have previously shown that the tumor-intrinsic NLRP3 inflammasome drives PMN-MDSC recruitment via an autocrine signaling pathway dependent on soluble HSP70 (19). […] To determine whether HSP70 could play the role of a soluble mediator in the induction of CXCR2-dependent chemokines in the distant lung, we delivered recombinant HSP70 (rHSP70) into non-tumor-bearing mice by intra-peritoneal (i.p.) injection and measured CXCL5 expression by whole lung tissue Western blot analysis as well as PMN-MDSC accumulation in the lung by flow cytometry. […] Based on these cumulative findings, we hypothesized that tumor-derived HSP70 signals through TLR4 to promote PMN-MDSC trafficking to these distant tissues. […]
Small representative tissue specimens were harvested from tumors and lungs and stored in RNAlater at −80° C. […] Total RNA was isolated by RNeasy Plus Mini Kit (Qiagen, 74134) and RNA was quantified by NanoDrop. […]

Assay [4] deals with MLE12 lung epithelial cells. The assay can be described thus: MLE12 lung epithelial cell line Western blot after rHSP70 ± TLR4 inhibitor or recombinant Wnt5a. The assay is classed as cell-based, murine. To be noted: for G-CSF expression: in vitro lung epithelial cells.
A further assay concerns non-tumor-bearing mice. The assay can be described thus: Recombinant HSP70 i.p. delivery into non-tumor-bearing mice (lung Western blot, flow cytometry). The assay is classed as in vivo, mouse. The following applies: rHSP70 i.p. vs normal saline.
Text: as §1
Cells (1-2×10^6) were diluted in 150 μl flow buffer per well of V bottom culture plates, incubated with Live/Dead Stain (Sigma) on ice for 20 mins, washed twice, and incubated with Fc Block (anti-CD16/CD32, 2 ug/mL) before staining with appropriate conjugated antibodies. Cells were washed, resuspended in 2% paraformaldehyde for 15 mins at 4° C., and analyzed using a BD FACSCanto flow cytometry system. […]

`CC(C)(O)c1coc(S(=O)(=O)NC(=O)Nc2c3c(cc4c2CCC4)CCC3)c1` [MCC950]: the “metastatic progression to the lung” value in assay [1] (MCC950 with anti-PD-1, S100β IHC and TRP2 qrt-PCR) is “inhibiting metastatic progression”. Also, the “PMN-MDSC populations in the lung” value in assay [1] (MCC950 with anti-PD-1 vs anti-PD-1) is reported as “suppress PMN-MDSC populations in the lung”. In assay [2] (MCC950 in combination with anti-PD-1, lung tissue and BALF), the “anti-PD-1-induced accumulation of PMN-MDSCs into lung tissues” value is reported as “largely eliminated”. Besides, the “upregulation of Wnt5a expression in lung tissues” value in assay [2] (MCC950 with anti-PD-1, Western blot) is reported as “suppress the upregulation of Wnt5a expression in lung tissues”.

For the molecule “rHSP70: recombinant HSP70 delivered by intra-peritoneal injection or added to cells”, in assay [3], the “Wnt5a and Cxcl5 expression in lung epithelial cells” value is “upregulated only in lung epithelial cells expressing TLR4”. For the same molecule, the Wnt5a expression entry in assay [4] (MLE12 cells, rHSP70 ± TLR4 inhibitor) is on record as “induce Wnt5a expression in a TLR4-dependent manner”. Moreover, in assay [4], the G-CSF expression entry was “induce modest G-CSF upregulation”. Besides, in the assay on non-tumor-bearing mice (Western blot), the “CXCL5 expression in whole lung tissue” value is reported as “induce CXCL5 expression”. For the same molecule, the “PMN-MDSC accumulation in the lung” value in the assay with non-tumor-bearing mice (flow cytometry) was “promote the accumulation of PMN-MDSCs in lung tissues”.

B1: Wnt5a: recombinant Wnt5a (R&D Systems/Bio-techne, 645-WN-010) used to treat cell lines (protein, UniProt P22725 62-380, looked up)
Protein Wnt-5a: IIGAQPLCSQLAGLSQGQKKLCHLYQDHMQYIGEGAKTGIKECQYQFRHRRWNCSTVDNTSVFGRVMQIGSRETAFTYAVSAAGVVNAMSRACREGELSTCGCSRAARPKDLPRDWLWGGCGDNIDYGYRFAKEFVDARERERIHAKGSYESARILMNLHNNEAGRRTVYNLADVACKCHGVSGSCSLKTCWLQLADFRKVGDALKEKYDSAAAMRLNSRGKLVQVNSRFNSPTTQDLVYIDPSPDYCVRNESTGSLGTQGRLCNKTSEGMDGCELMCCGRGYDQFKTVQTERCHCKFHWCCYVKCKKCTEIVDQFVCK
Turning to B1, in assay [4], the G-CSF expression entry was “more immediate driver of G-CSF”.
